Reference: patent US5530126A, “Process for the preparation of substituted 6-(pyrazol-3yl)-1,4-benzoxazin-3-ones” (Monsanto Company, priority 1994, dated 1996)

How the values were obtained:
Type in all cases: in vivo
Annual bluegrass [1] = experiment: Pre-emergence herbicide test; details: read-out: % plant inhibition (Anbg); for inhibition at 11210 g/ha: 11.21 kg/ha; for inhibition at 1120 g/ha: 1.12 kg/ha
Method: (§1) The tests for pre-emergence herbicide activity are conducted as follows:
(§2) Topsoil is placed in an aluminum pan and compacted to a depth of 0.95 to 1.27 cm from the top of the pan. On the top of the soil is placed a predetermined number of seeds of each of several monocotyledonous and dicotyledonous annual plant species and/or vegetative propagules of various perennial plant species. A known amount of the active ingredient dissolved or suspended in an organic solvent, e.g., acetone, or water as carrier is then applied directly to the seed bed, which is then covered with a layer of untreated topsoil to level fill the pan. After treatment, the pans are moved to a greenhouse bench where they are watered from below as needed to give adequate moisture for germination and growth.
(§3) Approximately 10-14 days (usually 11 days) after seeding and treating, the pans are observed and the results (% inhibition) are recorded.
(§4) Tables 7 and 7A below summarize the results of the pre-emergence herbicidal activity tests of compounds of this invention in weeds. The herbicidal rating shown in these tables is the percent inhibition of each plant species. The plant species usually regarded as weeds which are utilized in one set of tests, the data for which are shown in the tables, are identified by letter headings above the columns in accordance with the following legend: […]

Barnyardgrass [2] = experiment: Pre-emergence herbicide test; details: Echinochloa crus-galli, read-out: % plant inhibition (Bygr); for inhibition at 11210 g/ha: 11.21 kg/ha; for inhibition at 1120 g/ha: 1.12 kg/ha
Method: as §1, §2, §3, §4

Cocklebur [3] = experiment: Pre-emergence herbicide test; details: Xanthium strumarium, read-out: % plant inhibition (Cobu); for inhibition at 11210 g/ha: 11.21 kg/ha; for inhibition at 1120 g/ha: 1.12 kg/ha
Method: as §1, §2, §3, §4

Downy Brome [4] = experiment: Pre-emergence herbicide test; details: Bromus tectorum, read-out: % plant inhibition (Dobr); for inhibition at 11210 g/ha: 11.21 kg/ha; for inhibition at 1120 g/ha: 1.12 kg/ha
Method: as §1, §2, §3, §4

Indian Mustard [5] = experiment: Pre-emergence herbicide test; details: Brassica juncea, read-out: % plant inhibition (Inmu); for inhibition at 11210 g/ha: 11.21 kg/ha; for inhibition at 1120 g/ha: 1.12 kg/ha
Method: as §1, §2, §3, §4

Morningglory [6] = experiment: Pre-emergence herbicide test; details: Ipomoea, read-out: % plant inhibition (Mogl); for inhibition at 11210 g/ha: 11.21 kg/ha; for inhibition at 1120 g/ha: 1.12 kg/ha
Method: as §1, §2, §3, §4

Seedling johnsongrass [7] = experiment: Pre-emergence herbicide test; details: Sorghum halepense, read-out: % plant inhibition (Sejg); for inhibition at 11210 g/ha: 11.21 kg/ha; for inhibition at 1120 g/ha: 1.12 kg/ha
Method: as §1, §2, §3, §4

Velvetleaf [8] = experiment: Pre-emergence herbicide test; details: Abutilon theophrasti, read-out: % plant inhibition (Vele); for inhibition at 11210 g/ha: 11.21 kg/ha; for inhibition at 1120 g/ha: 1.12 kg/ha
Method: as §1, §2, §3, §4

Wild buckwheat [9] = experiment: Pre-emergence herbicide test; details: Fallopia convolvulus, read-out: % plant inhibition (Wibw); for inhibition at 11210 g/ha: 11.21 kg/ha; for inhibition at 1120 g/ha: 1.12 kg/ha
Method: as §1, §2, §3, §4

Yellow nutsedge [10] = experiment: Pre-emergence herbicide test; details: Cyperus, read-out: % plant inhibition (Yens); for inhibition at 11210 g/ha: 11.21 kg/ha; for inhibition at 1120 g/ha: 1.12 kg/ha
Method: as §1, §2, §3, §4

Annual bluegrass [11] = experiment: Post-emergence herbicide test; details: read-out: % plant inhibition (Anbg); for inhibition at 11210 g/ha: 11.21 kg/ha; for inhibition at 1120 g/ha: 1.12 kg/ha
Source text: (§5) Topsoil is placed in aluminum pans having holes in the bottom and compacted to a depth of 0.95 to 1.27 cm from the top of the pan. A predetermined number of seeds of each of several dicotyledonous and monocotyledonous annual plant species and/or vegetative propagules for the perennial plant species are placed on the soil and pressed into the soil surface. The seeds and/or vegetative propagules are covered with soil and leveled. The pans are then placed on a bench in the greenhouse and watered from below as needed. After the plants reach the desired age (two to three weeks), each pan, is removed individually to a spraying chamber and sprayed by means of an atomizer, operating at a spray pressure of 170.3 kPa (10 psig) at the application rates noted. In the spray solution is an amount of an emulsifying agent mixture to give a spray solution or suspension which contains about 0.4% by volume of the emulsifier. The spray solution or suspension contains a sufficient amount of the candidate chemical in order to give application rates of the active ingredient corresponding to those shown in Tables 8 and 8A, while applying a total amount of solution or suspension equivalent to 1870 L/Ha (200 gallons/acre). The pans were returned to the greenhouse and watered as before and the injury to the plants as compared to the control is observed at approximately 10-14 days (usually 11 days) and in some instances observed again at 24-28 days (usually 25 days) after spraying. The post-emergent herbicidal activity shown in these tables is the percent inhibition of each plant species.

Barnyardgrass [12] = experiment: Post-emergence herbicide test; details: Echinochloa crus-galli, read-out: % plant inhibition (Bygr); for inhibition at 11210 g/ha: 11.21 kg/ha; for inhibition at 1120 g/ha: 1.12 kg/ha
Source text: as §5

Cocklebur [13] = experiment: Post-emergence herbicide test; details: Xanthium strumarium, read-out: % plant inhibition (Cobu); for inhibition at 11210 g/ha: 11.21 kg/ha; for inhibition at 1120 g/ha: 1.12 kg/ha
Source text: as §5

Downy Brome [14] = experiment: Post-emergence herbicide test; details: Bromus tectorum, read-out: % plant inhibition (Dobr); for inhibition at 11210 g/ha: 11.21 kg/ha; for inhibition at 1120 g/ha: 1.12 kg/ha
Source text: as §5

Indian Mustard [15] = experiment: Post-emergence herbicide test; details: Brassica juncea, read-out: % plant inhibition (Inmu); for inhibition at 11210 g/ha: 11.21 kg/ha; for inhibition at 1120 g/ha: 1.12 kg/ha
Source text: as §5

Morningglory [16] = experiment: Post-emergence herbicide test; details: Ipomoea, read-out: % plant inhibition (Mogl); for inhibition at 11210 g/ha: 11.21 kg/ha; for inhibition at 1120 g/ha: 1.12 kg/ha
Source text: as §5

Seedling johnsongrass [17] = experiment: Post-emergence herbicide test; details: Sorghum halepense, read-out: % plant inhibition (Sejg); for inhibition at 11210 g/ha: 11.21 kg/ha; for inhibition at 1120 g/ha: 1.12 kg/ha
Source text: as §5

Velvetleaf [18] = experiment: Post-emergence herbicide test; details: Abutilon theophrasti, read-out: % plant inhibition (Vele); for inhibition at 11210 g/ha: 11.21 kg/ha; for inhibition at 1120 g/ha: 1.12 kg/ha
Source text: as §5

Wild buckwheat [19] = experiment: Post-emergence herbicide test; details: Fallopia convolvulus, read-out: % plant inhibition (Wibw); for inhibition at 11210 g/ha: 11.21 kg/ha; for inhibition at 1120 g/ha: 1.12 kg/ha
Source text: as §5

Yellow nutsedge [20] = experiment: Post-emergence herbicide test; details: Cyperus, read-out: % plant inhibition (Yens); for inhibition at 11210 g/ha: 11.21 kg/ha; for inhibition at 1120 g/ha: 1.12 kg/ha
Source text: as §5

COc1cc(-c2c(Cl)c(C(F)(F)F)nn2C)c(F)cc1N [Compound 73]
inhibition at 11210 g/ha (Annual bluegrass [1]): 0% | inhibition at 11210 g/ha (Barnyardgrass [2]): 0% | inhibition at 11210 g/ha (Cocklebur [3]): 0% | inhibition at 11210 g/ha (Downy Brome [4]): 0% | inhibition at 11210 g/ha (Indian Mustard [5]): 20% | inhibition at 11210 g/ha (Morningglory [6]): 0% | inhibition at 11210 g/ha (Seedling johnsongrass [7]): 0% | inhibition at 11210 g/ha (Velvetleaf [8]): 50% | inhibition at 11210 g/ha (Wild buckwheat [9]): 0% | inhibition at 11210 g/ha (Yellow nutsedge [10]): 0% | inhibition at 11210 g/ha (Annual bluegrass [11]): 0% | inhibition at 11210 g/ha (Barnyardgrass [12]): 0% | inhibition at 11210 g/ha (Cocklebur [13]): 10% | inhibition at 11210 g/ha (Downy Brome [14]): 0% | inhibition at 11210 g/ha (Indian Mustard [15]): 20% | inhibition at 11210 g/ha (Morningglory [16]): 0% | inhibition at 11210 g/ha (Seedling johnsongrass [17]): 0% | inhibition at 11210 g/ha (Velvetleaf [18]): 20% | inhibition at 11210 g/ha (Wild buckwheat [19]): 20% | inhibition at 11210 g/ha (Yellow nutsedge [20]): 0%

Cn1nc(-c2cc(CC(N)=O)c(Cl)cc2F)c(Cl)c1C(F)(F)F [Compound 112]
inhibition at 11210 g/ha (Annual bluegrass [1]): 100% | inhibition at 11210 g/ha (Barnyardgrass [2]): 100% | inhibition at 11210 g/ha (Cocklebur [3]): 40% | inhibition at 11210 g/ha (Downy Brome [4]): 20% | inhibition at 11210 g/ha (Indian Mustard [5]): 100% | inhibition at 11210 g/ha (Morningglory [6]): 100% | inhibition at 11210 g/ha (Seedling johnsongrass [7]): 90% | inhibition at 11210 g/ha (Velvetleaf [8]): 100% | inhibition at 11210 g/ha (Wild buckwheat [9]): 90% | inhibition at 11210 g/ha (Yellow nutsedge [10]): 80% | inhibition at 11210 g/ha (Annual bluegrass [11]): 30% | inhibition at 11210 g/ha (Barnyardgrass [12]): 60% | inhibition at 11210 g/ha (Cocklebur [13]): 60% | inhibition at 11210 g/ha (Downy Brome [14]): 0% | inhibition at 11210 g/ha (Indian Mustard [15]): 40% | inhibition at 11210 g/ha (Morningglory [16]): 80% | inhibition at 11210 g/ha (Seedling johnsongrass [17]): 30% | inhibition at 11210 g/ha (Velvetleaf [18]): 100% | inhibition at 11210 g/ha (Wild buckwheat [19]): 70% | inhibition at 11210 g/ha (Yellow nutsedge [20]): 40%

Cn1nc(-c2cc(C=NOCC(=O)O)c(Cl)cc2F)c(Cl)c1C(F)(F)F [Compound 130, ((((2-chloro-5-(4-chloro-1-methyl-5-(trifluoromethyl)-1H-pyrazol-3-yl)-4-fluorophenyl)methylene)amino)oxy)acetic acid]
inhibition at 1120 g/ha (Annual bluegrass [1]): 0% | inhibition at 1120 g/ha (Barnyardgrass [2]): 30% | inhibition at 1120 g/ha (Cocklebur [3]): 90% | inhibition at 1120 g/ha (Downy Brome [4]): 30% | inhibition at 1120 g/ha (Indian Mustard [5]): 100% | inhibition at 1120 g/ha (Morningglory [6]): 100% | inhibition at 1120 g/ha (Seedling johnsongrass [7]): 70% | inhibition at 1120 g/ha (Velvetleaf [8]): 100% | inhibition at 1120 g/ha (Wild buckwheat [9]): 90% | inhibition at 1120 g/ha (Yellow nutsedge [10]): 20% | inhibition at 1120 g/ha (Annual bluegrass [11]): 20% | inhibition at 1120 g/ha (Barnyardgrass [12]): 40% | inhibition at 1120 g/ha (Cocklebur [13]): 100% | inhibition at 1120 g/ha (Downy Brome [14]): 30% | inhibition at 1120 g/ha (Indian Mustard [15]): 40% | inhibition at 1120 g/ha (Morningglory [16]): 100% | inhibition at 1120 g/ha (Seedling johnsongrass [17]): 70% | inhibition at 1120 g/ha (Velvetleaf [18]): 100% | inhibition at 1120 g/ha (Wild buckwheat [19]): 100% | inhibition at 1120 g/ha (Yellow nutsedge [20]): 20%

Cn1nc(-c2cc(CO)c(Cl)cc2F)c(Cl)c1C(F)(F)F [Compound 122, 2-chloro-5-[4-chloro-1-methyl-5-(trifluoromethyl)-1H-pyrazol-3-yl]-4-fluorobenzenemethanol]
inhibition at 1120 g/ha (Annual bluegrass [1]): 20% | inhibition at 1120 g/ha (Barnyardgrass [2]): 80% | inhibition at 1120 g/ha (Cocklebur [3]): 40% | inhibition at 1120 g/ha (Downy Brome [4]): 20% | inhibition at 1120 g/ha (Indian Mustard [5]): 100% | inhibition at 1120 g/ha (Morningglory [6]): 80% | inhibition at 1120 g/ha (Seedling johnsongrass [7]): 40% | inhibition at 1120 g/ha (Velvetleaf [8]): 100% | inhibition at 1120 g/ha (Wild buckwheat [9]): 70% | inhibition at 1120 g/ha (Yellow nutsedge [10]): 0% | inhibition at 1120 g/ha (Annual bluegrass [11]): 20% | inhibition at 1120 g/ha (Barnyardgrass [12]): 70% | inhibition at 1120 g/ha (Cocklebur [13]): 60% | inhibition at 1120 g/ha (Downy Brome [14]): 20% | inhibition at 1120 g/ha (Indian Mustard [15]): 50% | inhibition at 1120 g/ha (Morningglory [16]): 80% | inhibition at 1120 g/ha (Seedling johnsongrass [17]): 70% | inhibition at 1120 g/ha (Velvetleaf [18]): 100% | inhibition at 1120 g/ha (Wild buckwheat [19]): 90% | inhibition at 1120 g/ha (Yellow nutsedge [20]): 20%
